Data from patent US8193191B2, “Urotensin II receptor antagonists” (Janssen Pharmaceutica N.V., priority 2006, dated 2012).

Columns and labels:
[1] = target: T1, Human UII receptor, 6D9 human rhabdomyosarcoma cells (Homo sapiens, UniProt Q9UKP6); assay: Human UII Calcium Mobilization Assay; type: cell-based; conditions: average value, FLIPR TETRA, read-out: Human UII Ca^+ Mobilization Average IC50
T1 construct: 6D9: isolated by dilution subcloning of RMS13 cells, ATCC® Number: CRL-2061; host or cells: 6D9 human rhabdomyosarcoma cells (subclone of RMS13)
T1 sequence (Q9UKP6 1-389): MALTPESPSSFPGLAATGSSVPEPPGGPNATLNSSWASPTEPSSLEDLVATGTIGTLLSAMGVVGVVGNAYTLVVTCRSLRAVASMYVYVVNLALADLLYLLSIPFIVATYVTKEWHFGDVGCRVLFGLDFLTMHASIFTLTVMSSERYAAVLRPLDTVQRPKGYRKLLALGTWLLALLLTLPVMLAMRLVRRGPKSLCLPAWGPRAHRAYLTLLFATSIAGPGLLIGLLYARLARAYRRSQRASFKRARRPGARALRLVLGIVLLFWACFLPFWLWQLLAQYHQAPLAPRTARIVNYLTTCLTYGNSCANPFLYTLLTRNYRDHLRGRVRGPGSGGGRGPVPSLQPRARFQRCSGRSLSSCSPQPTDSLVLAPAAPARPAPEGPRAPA
Protocol: 6D9 human rhabdomyosarcoma cells were seeded into tissue culture treated 384-well black-walled clear bottom plates (3712, Corning Incorporated, Corning, N.Y.) at 8,000 cells/well in 25 μL of culture medium, and maintained in an incubator (5% CO2 at 37° C.) for 22 hrs prior to the calcium mobilization assay. 25 μL of dye solution was added to the wells such that the final liquid volume before agonist/antagonist treatment was 50 μL for all assays. The cell plates were incubated at 37° C. for 45 minutes and the fluorescence intensity was measured on a Fluorometric Imaging Plate Reader (FLIPR^TETRA, Molecular Devices, Sunnyvale, Calif.).
Antagonist and agonist U-II were added at room temperature on the FLIPR^TETRA, and the fluorescence intensity before and after addition was measured over a period of 4 minutes. The dye incubation time and temperature as well as instrument setting was adjusted so the fluorescence intensity could be compared between plates on the same day. EC50 and IC50 were analyzed using GraphPad Prism 4 software (GraphPad Software Inc., San Diego, Calif.).
Materials and reagent Preparation: Human Rhabdomyosarcoma cells (6D9: isolated by dilution subcloning of RMS13 cells, ATCC® Number: CRL-2061, American Type Culture Collection ATCC, Manassas, Va.) was maintained in RPMI-1640 medium (30-2001, ATCC, Manassas, Va.) supplemented with 10% (v/v) Fetal Bovine Serum (SH30071.03, Hyclone, Logan, Utah).
Dye preparation: BD™ Calcium Assay Kit (80500-301, BD Biosciences, Rockville, Md.) was prepared according to the manufacture's instruction in 1× Hanks' balanced salt solution (HBSS, 21-023-CV, Mediatech, Inc. Herndon, Va.) containing 20 mM HEPES buffer (25-060-CI, Mediatech, Inc. Herndon, Va.). Final dye loading conditions included 1.25 mM probenecid (P36400, Invitrogen, Carlsbad, Calif.) and 0.01% FBS.
Urantide (PUT-3639-PI, Peptide International, Louisville, Ky.) was prepared in water at 5 mM. For assays, U-II agonist, U-II antagonist and urantide were diluted with HBSS/HEPES containing 0.01% FBS.
Test compounds were dissolved in DMSO at 10 mM concentration. The serial dilutions were carried out in HBSS/HEPES. The highest final DMSO concentration was at 0.1%.

[2] = target: T2, rat GPR14 (U-II receptor) (Rattus norvegicus, UniProt P49684); assay: Rat UII Calcium Mobilization FLIPR Assay; type: cell-based; conditions: average value for the compound tested; read-out: Rat UII FLIPR Average IC50
T2 construct: expressed in transfected cells
T2 sequence (P49684 1-386): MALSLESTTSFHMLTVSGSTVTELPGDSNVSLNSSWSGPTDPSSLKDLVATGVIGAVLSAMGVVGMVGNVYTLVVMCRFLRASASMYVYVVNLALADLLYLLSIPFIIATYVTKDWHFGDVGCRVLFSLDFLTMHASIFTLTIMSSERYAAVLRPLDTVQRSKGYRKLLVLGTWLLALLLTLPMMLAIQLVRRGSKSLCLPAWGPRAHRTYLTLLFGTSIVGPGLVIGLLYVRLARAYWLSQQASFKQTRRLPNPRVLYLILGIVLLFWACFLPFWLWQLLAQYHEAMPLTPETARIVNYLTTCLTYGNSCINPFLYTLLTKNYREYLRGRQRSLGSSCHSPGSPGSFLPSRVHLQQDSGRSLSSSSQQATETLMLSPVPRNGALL
Procedure, shortened: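 CHO cells stably expressing rat U-II receptor, seeded 24 h before assay, were loaded with FLIPR calcium dye in HBSS/20 mM HEPES/0.1% BSA/2.5 mM probenecid, pH 7.4, for 1 h at 37° C. Calcium mobilization then read by FLIPR at 23° C.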

[3] = target: T3, endogenous human UII receptor (Homo sapiens, UniProt Q9UKP6); assay: Human Radioligand Binding Assay ((^125I)-U-II binding to human skeletal muscle myoblasts)
T3 sequence (Q9UKP6 1-389): T1 sequence (Q9UKP6 1-389)

SMILES | IC50 [1] [nM] | IC50 [2] [nM] | Ki [3] [nM]
COc1ccc([C@@H](CCCNS(=O)(=O)c2cccs2)N2C(=O)c3cccc(N4CCN(C5CCCCC5)CC4)c3C2=O)cc1OC [Cpd 196, (R)-thiophene-2-sulfonic acid [4-[4-(4-cyclohexyl-piperazin-1-yl)-1,3-dioxo-1,3-dihydro-isoindol-2-yl]-4-(3,4-dimethoxy-phenyl)-butyl]-amide] | 1200 | 22 | 380
COc1ccc([C@@H](CCCNC(=O)c2ccoc2)N2C(=O)c3cccc(N4CCN([C@H](C)c5ccccc5)CC4)c3C2=O)cc1OC [Cpd 186, (R)-furan-3-carboxylic acid (4-(3,4-dimethoxy-phenyl)-4-{1,3-dioxo-4-[4-(1R)-(1-phenyl-ethyl)-piperazin-1-yl]-1,3-dihydro-isoindol-2-yl}-butyl)-amide] | 820 | 13 | 37
C=CCN1CCN(c2cccc3c2C(=O)N([C@H](CCCNS(=O)(=O)c2cccs2)c2ccc(OC)c(OC)c2)C3=O)CC1 [Cpd 194, (R)-thiophene-2-sulfonic acid [4-[4-(4-allyl-piperazin-1-yl)-1,3-dioxo-1,3-dihydro-isoindol-2-yl]-4-(3,4-dimethoxy-phenyl)-butyl]-amide] | 990 | 10 | 170
COc1ccc([C@@H](CCCNS(=O)(=O)c2cnn(C)c2)N2C(=O)c3cccc(N4CCN([C@H](C)c5ccccc5)CC4)c3C2=O)cc1OC [Cpd 136, (R)-1-methyl-1H-pyrazole-4-sulfonic acid (4-(3,4-dimethoxy-phenyl)-4-{1,3-dioxo-4-[4-(1R)-(1-phenyl-ethyl)-piperazin-1-yl]-1,3-dihydro-isoindol-2-yl}-butyl)-amide] | 360 | 6.2 | 61
COc1ccc([C@@H](CCCNC(=O)c2ccc(S(N)(=O)=O)n2C)N2C(=O)c3cccc(N4CCN([C@H](C)c5ccccc5)CC4)c3C2=O)cc1OC [Cpd 148, (R)-1-methyl-5-sulfamoyl-1H-pyrrole-2-carboxylic acid (4-(3,4-dimethoxy-phenyl)-4-{1,3-dioxo-4-[4-(1R)-(1-phenyl-ethyl)-piperazin-1-yl]-1,3-dihydro-isoindol-2-yl}-butyl)-amide] | 1100 | 18 | > 200
COc1ccc([C@@H](CCCNC(=O)CC(C)C)N2C(=O)c3cccc(N4CCN([C@H](C)c5ccccc5)CC4)c3C2=O)cc1OC [Cpd 181, (R)-N-(4-(3,4-dimethoxy-phenyl)-4-{1,3-dioxo-4-[4-(1R)-(1-phenyl-ethyl)-piperazin-1-yl]-1,3-dihydro-isoindol-2-yl}-butyl)-3-methyl-butyramide] | 970 | 12 | 41
COc1ccc(CN2C(=O)c3cccc(N4CCN(C5C6CC7CC(C6)CC5C7)CC4)c3C2=O)cc1OC (stereo not drawn) [Cpd 87, 4-(4-adamantan-2-yl-piperazin-1-yl)-2-(3,4-dimethoxy-benzyl)-isoindole-1,3-dione] | 1500 | 480 | –
COc1ccc([C@@H](CCCNS(=O)(=O)c2cccs2)N2C(=O)c3cccc(N4CCN(CC(F)(F)F)CC4)c3C2=O)cc1OC [Cpd 195, (R)-thiophene-2-sulfonic acid (4-(3,4-dimethoxy-phenyl)-4-{1,3-dioxo-4-[4-(2,2,2-trifluoro-ethyl)-piperazin-1-yl]-1,3-dihydro-isoindol-2-yl}-butyl)-amide] | > 10000 | 2100 | –
CCN1CCN(c2cccc3c2C(=O)N([C@H](CCCNS(=O)(=O)c2c(C)nn(C)c2C)c2ccc(OC)c(OC)c2)C3=O)CC1 [Cpd 204, (R)-1,3,5-trimethyl-1H-pyrazole-4-sulfonic acid {4-(3,4-dimethoxy-phenyl)-4-[4-(4-ethyl-piperazin-1-yl)-1,3-dioxo-1,3-dihydro-isoindol-2-yl]-butyl}-amide] | 200 | 7.5 | –
COc1ccc([C@@H](CCCNC(=O)CN(C)C)N2C(=O)c3cccc(N4CCN([C@H](C)c5ccccc5)CC4)c3C2=O)cc1OC [Cpd 143, (R)-N-(4-(3,4-dimethoxy-phenyl)-4-{1,3-dioxo-4-[4-(1R)-(1-phenyl-ethyl)-piperazin-1-yl]-1,3-dihydro-isoindol-2-yl}-butyl)-2-dimethylamino-acetamide] | 690 | 28 | –

More lines, now with the values ahead:

IC50 [1] [nM] | IC50 [2] [nM] | Ki [3] [nM] | SMILES
780 | 49 | 25 | COc1ccc([C@@H](CCCN(C)S(=O)(=O)O)N2C(=O)c3cccc(N4CCN([C@H](C)c5ccccc5)CC4)c3C2=O)cc1OC [Cpd 228, (R)-(4-(3,4-dimethoxy-phenyl)-4-{1,3-dioxo-4-[4-(1R)-(1-phenyl-ethyl)-piperazin-1-yl]-1,3-dihydro-isoindol-2-yl}-butyl)-methyl-sulfamic acid]
790 | 19 | 26 | COc1ccc([C@@H](CCCNC(=O)C(F)(F)F)N2C(=O)c3cccc(N4CCN([C@H](C)c5ccccc5)CC4)c3C2=O)cc1OC [Cpd 212, (R)-N-(4-(3,4-dimethoxy-phenyl)-4-{1,3-dioxo-4-[4-(1R)-(1-phenyl-ethyl)-piperazin-1-yl]-1,3-dihydro-isoindol-2-yl}-butyl)-2,2,2-trifluoro-acetamide]
> 10000 | 9500 | > 300 | CCN1CCN(c2cccc3c2C(=O)N([C@H](CCCOCc2cccs2)c2ccc(OC)c(OC)c2)C3=O)CC1 [Cpd 214, (R)-2-[1-(3,4-dimethoxy-phenyl)-4-(thiophen-2-ylmethoxy)-butyl]-4-(4-ethyl-piperazin-1-yl)-isoindole-1,3-dione]
170 | 23 | 11 | COc1ccc([C@@H](CCNS(=O)(=O)O)N2C(=O)c3cccc(N4CCN([C@H](C)c5ccccc5)CC4)c3C2=O)cc1OC [Cpd 220, (R)-(3-(3,4-dimethoxy-phenyl)-3-{1,3-dioxo-4-[4-(1R)-(1-phenyl-ethyl)-piperazin-1-yl]-1,3-dihydro-isoindol-2-yl}-propyl)-sulfamic acid]
3800 | – | 290 | CCN1CCN(c2cccc3c2C(=O)N([C@H](CCCOS(=O)(=O)N(C)C)c2ccc(OC)c(OC)c2)C3=O)CC1 [Cpd 209, (R)-dimethyl-sulfamic acid 4-(3,4-dimethoxy-phenyl)-4-[4-(4-ethyl-piperazin-1-yl)-1,3-dioxo-1,3-dihydro-isoindol-2-yl]-butyl ester]
> 3000 | 3700 | – | COc1ccc([C@@H](CCCNC(=O)C(C)C)N2C(=O)c3cccc(OC4CCN(C)CC4)c3C2=O)cc1OC [Cpd 205, (R)-N-{4-(3,4-dimethoxy-phenyl)-4-[4-(1-methyl-piperidin-4-yloxy)-1,3-dioxo-1,3-dihydro-isoindol-2-yl]-butyl}-isobutyramide]
